{"source": "paper PMC5855801", "about": "“Benzothiophenone Derivatives Targeting Mutant Forms of Estrogen Receptor-α in Hormone-Resistant Breast Cancers” (International Journal of Molecular Sciences, 2018)", "key": {"T47D cells": {"test_system": "T47D cells", "assay": "Presto Blue cell viability assay, T47D", "type": "cell-based, human", "conditions": "96 h, two-fold dilution starting at 50 µM", "description": "(§1) The Presto Blue cell viability assay was used to assess the growth inhibitory potential of VPC-16606 on ERα^+ T47D, MCF7, ZR75-1 and TamR3 cells. They were treated for 96 h with a two-fold dilution range of the compound starting at 50 µM.\n(§2) Cell viability was determined using the Presto Blue cell viability assay (Thermo Fisher Scientific, Waltham, MA, USA). Cells were seeded in clear bottom black-walled 96-well plates at a density of 5 × 10^3 cells/well in 100 μL of their respective media. On the following day, the cells were treated with test compounds (0.001–22.5 μM) in the presence of 1 nM E2 and incubated at 37 °C. After 96 h, 30 μL of Presto Blue reagent was added and incubated for 10 min at 37 °C. The fluorescent signal from viable cells was measured at 590 nm."}, "MCF7 cells": {"test_system": "MCF7 cells", "assay": "Presto Blue cell viability assay, MCF7", "type": "cell-based, human", "conditions": "MCF7, 96 h, two-fold dilution starting at 50 µM", "description": "as §1, §2"}, "ERα− MDA-MB-231 cells": {"test_system": "ERα− MDA-MB-231 cells", "assay": "Presto Blue cell viability assay, MDA-MB-231", "type": "cell-based, human", "conditions": "ERα− MDA-MB-231, 96 h"}, "[1]": {"target": "T1, progesterone receptor (PR) (Homo sapiens, UniProt P06401)", "T1 construct": "expressed in transfected cells; host or cells: PC3", "T1 sequence (P06401 1-933)": "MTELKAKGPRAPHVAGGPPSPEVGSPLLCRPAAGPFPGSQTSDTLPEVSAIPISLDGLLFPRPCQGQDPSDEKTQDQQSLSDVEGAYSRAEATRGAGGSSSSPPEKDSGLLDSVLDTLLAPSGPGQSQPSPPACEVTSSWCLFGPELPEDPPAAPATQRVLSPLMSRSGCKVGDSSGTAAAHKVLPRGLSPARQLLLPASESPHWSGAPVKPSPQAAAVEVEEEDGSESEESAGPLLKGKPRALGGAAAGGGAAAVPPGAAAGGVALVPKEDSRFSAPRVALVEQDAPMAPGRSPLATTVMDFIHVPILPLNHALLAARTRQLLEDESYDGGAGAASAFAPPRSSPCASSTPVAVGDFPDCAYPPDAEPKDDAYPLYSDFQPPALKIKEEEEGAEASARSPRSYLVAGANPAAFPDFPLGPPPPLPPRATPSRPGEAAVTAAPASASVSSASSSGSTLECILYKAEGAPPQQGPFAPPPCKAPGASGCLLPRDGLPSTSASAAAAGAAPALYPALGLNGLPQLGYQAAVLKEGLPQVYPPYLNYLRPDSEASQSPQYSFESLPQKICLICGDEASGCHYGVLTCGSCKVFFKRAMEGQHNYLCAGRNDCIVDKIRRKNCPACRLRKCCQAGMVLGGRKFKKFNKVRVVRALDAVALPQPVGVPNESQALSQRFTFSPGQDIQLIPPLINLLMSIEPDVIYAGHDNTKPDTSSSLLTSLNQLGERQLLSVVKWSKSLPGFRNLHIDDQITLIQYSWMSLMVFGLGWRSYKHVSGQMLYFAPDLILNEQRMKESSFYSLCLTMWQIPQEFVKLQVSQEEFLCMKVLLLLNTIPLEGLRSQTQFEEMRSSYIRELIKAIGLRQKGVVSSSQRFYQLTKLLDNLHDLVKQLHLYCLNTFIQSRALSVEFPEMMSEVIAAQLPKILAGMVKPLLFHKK", "assay": "Luciferase reporter selectivity assay in PC3 cells, PR", "type": "cell-based", "conditions": "24 h", "description": "Figure 4 Further activity profile of VPC-16606. (A,B) Chromatin immunoprecipitation (ChIP) analysis of ERα binding to the pS2 enhancer, or the GAPDH promoter, in MCF7 cells. Where indicated, ERα was stimulated with 1 nM E2 or dimethyl sulfoxide (DMSO) alone, and the compound was administered at a 6 μM concentration. Sheared chromatin-protein complexes were precipitated with the ERα antibody, reverse cross-linked and analyzed by quantitative PCR. The results are normalized as fold enrichment over precipitation with a rabbit isotype control IgG antibody for each condition tested. Error bars indicate standard error of the mean (SEM) for 3 independent experiments performed in triplicates. Fold enrichment from the compound tested condition (ERα antibody) was statistically compared against DMSO + E2 with a two-tailed t-test (unpaired) *** indicates p-value <0.001. (C) Specificity of VPC-16606 was evaluated in the luciferase reporter assay. PC3 cells were transfected with plasmids expressing androgen receptor (AR), progesterone receptor (PR) or glucocorticoid receptor (GR) along with their responsive luciferase reporter constructs bearing androgen response element (ARE), progesterone response element (PRE) or glucocorticoid response element (GRE), respectively. […] Y-axis represents relative luminescence (RLU) after normalizing to constitutive renilla reporter. […]"}}}
{"smiles": "CC(=O)N(/N=C1\\Sc2c(C)cccc2C1=O)c1ccccc1Cl", "note": "[VPC-16606]", "values": [{"measurement": "Cell growth (Presto Blue viability)", "setting": "T47D cells", "result": "significantly reduce the growth"}, {"measurement": "Cell growth (Presto Blue viability)", "setting": "MCF7 cells", "result": "significantly reduce the growth"}, {"measurement": "Cell growth (Presto Blue viability)", "setting": "ERα− MDA-MB-231 cells", "result": "without any effect"}, {"measurement": "Effect on PR activity (luciferase)", "setting": "[1]; 50 µM", "result": "some effect"}, {"measurement": "Effect on PR activity (luciferase)", "setting": "[1]; doses up to 25 µM", "result": "does not affect the activity"}]}
